Data as given in patent publication US20110014185A1, “METHODS INVOLVING GRAF POLYPEPTIDES” (priority 2008, published 2011).
Entries after “also recorded” stand apart in the source; their conditions may differ.

Assays:
[1] = acute ischaemic stroke; cited from earlier work
HeLa cells [2] = test: GRAF1 localisation by immunofluorescent staining; format: cell-based, human; conditions: for colocalisation of GRAF1 with focal complex markers / number of GRAF1-positive tubules: 40 uM Y-27632 for 40 minutes
Description: FIG. 8 GRAF1 mediated trafficking is dependent upon dynamin and small G-proteins. a, HeLa cells incubated either with medium including vehicle (DMSO) or 50 um dynasore for 15 minutes before addition of dextran to these, cells for a further 15 minutes, (with DMSO/dynasore concentrations being retained throughout), before fixation and staining for GRAF1, dextran and paxillin. […] Note the absence of GRAF1-positive tubules in transfected cells. Scale bars=10 um. […] Note that endogenous GRAF1 tubes originate from within rings of beta1-integrins (a). […] Protein expression and purification Antibodies and constructs used are described in supplemental methods. Recombinant proteins were expressed in a BL21 (DE3) pLysS E-coli strain as Glutathione Stransferase (GST)-fusion proteins and purified using glutathione-Sepharose 4B beads (Amersham Biosciences) and gel filtration on a sephacryl S-200 column (Amersham) as previously described27. For analysis of endogenous protein expression, cell lines were grown according to instructions from American Tissue Culture Collection, harvested and lysed in 1% NP-40 in PBS supplemented with protease inhibitors. After a 20,000 g centrifugation the supernatant was analysed by SDS-PAGE and immunoblotting. Protein and lipid interaction assays Liposomes from total brain lipids (FOLCH fraction I) (Sigma Aldrich), from synthetic lipids (Avanti Polar Lipids), and liposomes of a specified diameter were generated as previously described10. Liposome binding assays for lipid specificity and curvature sensitivity was performed as previously described10. Briefly, proteins were incubated together with liposomes followed by centrifugation and analysis of the pellet and supernatant by SDS-PAGE and Coomassie staining. For immunoprecipitation experiments, rat brain cytosol was generated by homogenisation of rat brains in buffer (25 mM HEPES, 150 mM NaCl, 1 mM DTT, 0.1% Triton X-100 and protease inhibitors), before centrifugation at 50,000 rpm for 30 mins at 4i ? C. The supernatant was removed and added to protein A Sephorose 4B beads (Amersham Biosciensis) to which antibodies had been previously bound and incubated at 4° C. for 3 hrs. Beads were washed three times in buffer (25 mM HEPES, 150 mM NaCl) supplemented with 1% NP-40, and once in buffer without NP-40 before analysis by SDS-PAGE combined with immunoblotting or Coomassie staining. Pull-down experiments against rat brain cytosol using purified proteins and identification by mass-spectrometry were performed as previously described27. In vitro liposome tubulation assays were performed and analysed as previously described 10. Cell culture and transfections HeLa cells were grown in RPM1 1640 media (GIBCO) supplemented with L-Glutamine and 10% fetal bovine serum and transfected using Genejuice (Novagen) for transient protein expression. For primary cultures, rat hippocampal neurons/astrocytes were prepared by trypsin digestion and mechanical trituration from E18 or P1 Sprague-Dawley rats and plated onto poly L-lysine coated coverslips. Cells were cultured in B27-supplemented Neurobasal media. For GRAF1 depletion, HeLa cells were transfected with stealth siRNAs specific against human GRAF1 (Invitrogen) using Lipofectamine 2000 (Invitrogen) according to manufacturers instructions. Cells were cultured for an additional 48 hrs for efficient silencing of the GRAF1 expression. Stealth Block-it siRNA (Invitrogen) was used as a control. AP2 siRNA was used as previously described28. […]

[3] = test system: GRAF1 BAR+PH overexpressing cells; test: localisation of overexpressed GFP-tagged GRAF1 BAR+PH protein, confocal microscopy; format: cell-based; conditions: 1 uM nocodazole for 1 hr
From the text: FIG. 9 Membrane tubules generated by the GRAF1 BAR+PH domain in vivo are mobile structures dependent upon microtubules. a, Representative Coomassie-stained gel of a typical liposome co-sedimentation assay with GST-tagged BAR+PH and liposomes of different diameters quantified in FIG. 2a (P=pellet, S=supernatant). b, Confocal micrographs showing the tubular localisation of overexpressed myc-tagged BAR+PH protein in HeLa cells and the cytoplasmic localisation of a similarly overexpressed protein with a BAR domain mutation (KK131/132EE). Scale bars=10 um. c, Electron micrographs of negatively-stained liposomes incubated in the presence or absence of GST-tagged GRAF1 BAR+PH protein. Note the presence of tubular structures present with BAR+PH protein and their absence in the control incubation. Scale bars=200 nm. d, Confocal micrographs of cells overexpressing GFP-tagged GRAF1 BAR+PH protein left untreated (Panel 1) or treated with 1 uM nocodazole for 1 hr and fixed immediately (Panel 2) or left to recover for 30 mins after nocodazole washout (Panel 3). Cells were then stained for beta-tubulin (lower images). GRAF1 BAR+PH-positive tubular structures were not present in nocodazole treated cells but recovered after nocodazole washout where they are observed to colocalise with beta-tubulin. e, Live cell spinning disc confocal imaging of a GFP-tagged GRAF1 BAR+PHover expressing cell at 20° C. […]

HeLa cells [4] = test: tubular dextran uptake by immunofluorescence; format: cell-based, human; conditions: 50 um dynasore 15 minutes before dextran, further 15 minutes
Description: FIG. 8 GRAF1 mediated trafficking is dependent upon dynamin and small G-proteins. a, HeLa cells incubated either with medium including vehicle (DMSO) or 50 um dynasore for 15 minutes before addition of dextran to these, cells for a further 15 minutes, (with DMSO/dynasore concentrations being retained throughout), before fixation and staining for GRAF1, dextran and paxillin. […] Note the absence of GRAF1-positive tubules in transfected cells. Scale bars=10 um.
Protein expression and purification Antibodies and constructs used are described in supplemental methods. Recombinant proteins were expressed in a BL21 (DE3) pLysS E-coli strain as Glutathione Stransferase (GST)-fusion proteins and purified using glutathione-Sepharose 4B beads (Amersham Biosciences) and gel filtration on a sephacryl S-200 column (Amersham) as previously described27. For analysis of endogenous protein expression, cell lines were grown according to instructions from American Tissue Culture Collection, harvested and lysed in 1% NP-40 in PBS supplemented with protease inhibitors. After a 20,000 g centrifugation the supernatant was analysed by SDS-PAGE and immunoblotting. […] In vitro liposome tubulation assays were performed and analysed as previously described 10. […]

O=S(=O)(c1cccc2cnccc12)N1CCCNCC1 [fasudil]
toxicity in clinical trials [1]: non-toxic

C[C@@H](N)[C@H]1CC[C@H](C(=O)Nc2ccncc2)CC1 [Y-27632]
colocalisation of GRAF1 with focal complex markers (HeLa cells [2]): vinculin is found mostly in focal complexes where it co-localises with GRAF1
number of GRAF1-positive tubules (HeLa cells [2]): increases the number of GRAF1-positive tubules
colocalisation of GRAF1 with focal complex markers (HeLa cells [2]; listed as Rho kinase inhibitor): increased the colocalisation of GRAF1 with 1-integrin, vinculin and dynamin
number of GRAF1-positive tubules (HeLa cells [2]; listed as Rho kinase inhibitor): dramatically increased the numbers of GRAF1-positive tubules

COC(=O)Nc1nc2ccc(C(=O)c3cccs3)cc2[nH]1 [nocodazole]
GRAF1 BAR+PH-positive tubular structures [3]: not present; also recorded: abolishes the tubular localisation

O=C(N/N=C/c1ccc(O)c(O)c1)c1cc2ccccc2cc1O [dynasore]
tubular dextran uptake (HeLa cells [4]): loss of tubular endocytosis through the CLIC/GEEC pathway; also recorded: profound reduction in tubular dextran uptake; also recorded: profoundly reduced ability to endocytose dextran in tubular structures
GRAF1-positive tubular structures / GRAF1 distribution (HeLa cells [2]; 50 um dynasore): redistribute from tubular endocytic membranes to basal complexes; also recorded: reduction in GRAF1-positive tubular structures; also recorded: redistributed in these cells from tubular structures to basal punctae and rings
